Experimental data taken from ChEMBL document CHEMBL1150727, “New cytotoxic aristolactams from Pararistolochia flos-avis” (1987).
In brackets after ≈: the same amount, converted by molar mass. Activity calls are given as the source filed them. The rule behind the calls is not given here.

Tests used:
[1] = system: KB; assay: Cytotoxicity against human KB cells; assay type: functional
[2] = system: P388; assay: Cytotoxicity against mouse P388 cells; assay type: functional
[3] = read-out: ED50 (the source's name)

SMILES	Activity [1]	Activity [2]	EC50 [1, 3]	EC50 [2, 3]
COc1c(O)c(OC)c2c3c(cc4ccccc42)NC(=O)c13	inactive	inactive	–	–
COc1c(O)cc2c3c(cc4ccccc4c13)NC2=O [ARISTOLACTAM AII]	–	–	2.1 µg/mL (≈ 7.92 µM)	3.2 µg/mL (≈ 12.1 µM)
COc1cc2c3c(cc4ccccc4c3c1O)NC2=O	inactive	inactive	–	–
COc1cccc2c1cc1c3c(cc4c(c32)OCO4)C(=O)N1	inactive	inactive	–	–
